Columns and labels:
Format in all cases: cell-based
ERK5 [1] = target: T1, ERK5 (Homo sapiens, UniProt Q13164); test: Western blot, rescue of compound 7-induced ERK5 degradation by pretreatment in MIA Paca-2 cells; design: immunoblotted with primary antibodies against ERK5 (Cell Signaling®); endogenous in cells; host or cells: MIA PaCa-2; details: for Rescue of ERK5 degradation induced by bispecific compound 7: then 1 μM compound 7 for 24 h (FIG. 3)
Description: (§1) MIA Paca-2 cells were treated with 0, 0.1, 1, or 10 μM of bispecific compounds 3-7 for 24 hours. Cells were then lysed in RIPA buffer (Sigma®) containing protease/phosphatase inhibitor cocktail (Roche®). The protein concentrations were measured by bicinchoninic acid assay (BCA) analysis (Pierce™). Equal amounts of protein were resolved by 4-12% Tris-Base gels (Invitrogen™), and then transferred to the Immuno-Blot PVDF membrane (BioRad), and immunoblotted with primary antibodies against ERK5 (Cell Signaling®) and […] (Cell Signaling®), and then immunoblotted with IRDye®800-labeled goat anti-rabbit IgG and IRDye®800-labeled goat anti-mouse IgG (LI-COR) secondary antibodies. The membranes were detected on Odyssey® CLx system.
MIA Paca-2 cells were pretreated with 10 μM XMD17-109 (the parental compound and known ERK5 inhibitor; available from, e.g., MedChemExpress, Cat. No. HY-15665, Monmouth Junction, N.J.), 10 μM DGY-05-180 (VHL ligand), 0.1 μM Bortezomib (a proteasome inhibitor; available from, e.g., Millipore Sigma, Cat. No. 179324-69-7, Burlington, Mass.), and 1 μM MLN4924 (a neddylation inhibitor; available from, e.g., MedChemExpress, Cat. No. HY-70062, Monmouth Junction, N.J.), for 2 h, and then treated with 1 μM bispecific compound 7 for 24 h. Cells were lysed and immunoblotted as described above with antibodies to ERK5 and GAPDH (Cell Signaling®).

ERK5 [2] = target: T1, ERK5; test: Western blot of ERK5 degradation in MIA Paca-2 cells; design: immunoblotted with primary antibodies against ERK5 (Cell Signaling®); endogenous in cells; host or cells: MIA PaCa-2; details: 24 hours, at 1 and 10 μM (FIG. 1)
Description: as §1

ERK5 [3] = target: T1, ERK5; test: Western blot of ERK5 degradation in A375 cells; design: immunoblotted with primary antibodies against ERK5 (Cell Signaling®); endogenous in cells; host or cells: A375; details: 24 hours, at 1 and 10 μM (FIG. 2)
Description: as §1
A375 cells were treated with 0, 0.1, 1, or 10 μM of bispecific compounds 3, 4, and 7-9 for 24 hours. Cells were lysed and immunoblotted as described above with antibodies to ERK5 and β-Actin.

ERK5 [4] = target: T1, ERK5; test: Western blot of ERK5 degradation in MOLT4 cells (0.1 or 1 μM); design: immunoblotted with primary antibodies against ERK5 (Cell Signaling®); endogenous in cells; host or cells: MOLT4; details: 5 hours, at 0.1 and 1 μM (FIG. 4)
Description: as §1
MOLT4 cells were treated with 0.1 or 1 μM of bispecific compounds 15-20 for 5 hours. Cells were lysed and immunoblotted as described above with antibodies to ERK5 and β-Actin.

ERK5 [5] = target: T1, ERK5; test: Western blot of ERK5 degradation in MOLT4 cells (dose curve); design: immunoblotted with primary antibodies against ERK5 (Cell Signaling®); endogenous in cells; host or cells: MOLT4; details: 5 hours, 0.1, 0.25, 0.5, or 1 μM (FIG. 5)
Description: as §1
(§2) MOLT4 cells were treated with 0.1, 0.25, 0.5, or 1 μM of bispecific compounds 18 and 23 for 5 hours. Cells were lysed and immunoblotted as described above with antibodies to ERK5, BRD4, and β-Actin.

BRD4 = target: T2, BRD4 (Homo sapiens, UniProt O60885); test: Western blot of BRD4 degradation in MOLT4 cells (dose curve); details: 5 hours, 0.1, 0.25, 0.5, or 1 μM (FIG. 5)
T2 construct: endogenous in cells; host or cells: MOLT4
Description: as §1, §2

T1 sequence (Q13164 whole entry): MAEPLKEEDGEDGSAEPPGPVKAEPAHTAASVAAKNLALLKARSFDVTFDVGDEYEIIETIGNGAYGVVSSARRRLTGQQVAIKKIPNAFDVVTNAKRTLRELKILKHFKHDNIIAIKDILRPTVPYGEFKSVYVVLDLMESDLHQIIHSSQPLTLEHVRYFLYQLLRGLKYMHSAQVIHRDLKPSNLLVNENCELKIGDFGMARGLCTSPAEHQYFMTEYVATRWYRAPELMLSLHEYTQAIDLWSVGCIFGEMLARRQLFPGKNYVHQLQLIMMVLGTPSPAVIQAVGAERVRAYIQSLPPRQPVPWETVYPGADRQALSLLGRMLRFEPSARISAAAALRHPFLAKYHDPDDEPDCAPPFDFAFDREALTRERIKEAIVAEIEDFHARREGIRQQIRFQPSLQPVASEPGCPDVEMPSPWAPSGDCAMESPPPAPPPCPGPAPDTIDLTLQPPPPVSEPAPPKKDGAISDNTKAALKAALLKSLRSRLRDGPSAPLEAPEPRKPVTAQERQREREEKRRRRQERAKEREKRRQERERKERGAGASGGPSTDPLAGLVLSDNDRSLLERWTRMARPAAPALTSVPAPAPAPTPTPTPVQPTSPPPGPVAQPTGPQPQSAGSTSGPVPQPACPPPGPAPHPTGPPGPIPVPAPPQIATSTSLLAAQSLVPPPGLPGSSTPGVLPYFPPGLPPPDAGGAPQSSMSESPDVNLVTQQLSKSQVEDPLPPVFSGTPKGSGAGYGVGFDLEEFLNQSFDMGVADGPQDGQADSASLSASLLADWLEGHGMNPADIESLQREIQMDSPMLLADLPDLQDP

## CC(C)C[C@H](NC(=O)[C@H](Cc1ccccc1)NC(=O)c1cnccn1)B(O)O [Bortezomib]
ERK5 [1]; pretreated 2 h with 0.1 μM
  Rescue of ERK5 degradation induced by bispecific compound 7: rescued the ERK5 degradation induced by bispecific compound 7

## NS(=O)(=O)OC[C@@H]1C[C@@H](n2ccc3c(N[C@H]4CCc5ccccc54)ncnc32)C[C@@H]1O [MLN4924]
ERK5 [1]; pretreated 2 h with 1 μM
  Rescue of ERK5 degradation induced by bispecific compound 7: rescued the ERK5 degradation induced by bispecific compound 7

## CCOc1cc(C(=O)N2CCC(N3CCN(C)CC3)CC2)ccc1Nc1ncc2c(n1)N(C1CCCC1)c1ccccc1C(=O)N2C [XMD17-109]
ERK5 [1]; pretreated 2 h with 10 μM
  Rescue of ERK5 degradation induced by bispecific compound 7: rescued the ERK5 degradation induced by bispecific compound 7

## Cc1ncsc1-c1ccc([C@H](C)NC(=O)[C@@H]2C[C@@H](O)CN2C(=O)[C@@H](NC(=O)CCCCCCCNC(=O)c2ccc(Nc3ncc4c(n3)N(C3CCCC3)c3ccccc3C(=O)N4C)cc2)C(C)(C)C)cc1 [compound 7, (2S,4R)-1-((S)-2-(8-(4-((11-cyclopentyl-5-methyl-6-oxo-6,11-dihydro-5H-benzo[e]pyrimido[5,4-b][1,4]diazepin-2-yl)amino)benzamido)octanamido)-3,3-dimethylbutanoyl)-4-hydroxy-N-((S)-1-(4-(4-methylthiazol-5-yl)phenyl)ethyl)pyrrolidine-2-carboxamide]
ERK5 [2]
  ERK5 degradation (Western blot): induced the degradation of ERK5
ERK5 [1]; 1 μM for 24 h after pretreatment with competitors/inhibitors (FIG. 3)
  Dependence of ERK5 degradation (mechanism): both ligand and proteasome dependent
ERK5 [3]
  ERK5 degradation (Western blot): induced the degradation of ERK5

## Cc1ncsc1-c1ccc([C@H](C)NC(=O)[C@@H]2C[C@@H](O)CN2C(=O)[C@@H](NC(=O)CCCCCN2CCN(C(=O)c3ccc(Nc4ncc5c(n4)N(C4CCCC4)c4ccccc4C(=O)N5C)cc3)CC2)C(C)(C)C)cc1 [compound 18, (2S,4R)-1-((S)-2-(6-(4-(4-((11-cyclopentyl-5-methyl-6-oxo-6,11-dihydro-5H-benzo[e]pyrimido[5,4-b][1,4]diazepin-2-yl)amino)benzoyl)piperazin-1-yl)hexanamido)-3,3-dimethylbutanoyl)-4-hydroxy-N-((S)-1-(4-(4-methylthiazol-5-yl)phenyl)ethyl)pyrrolidine-2-carboxamide]
ERK5 [4]
  ERK5 degradation (Western blot): induced the degradation of ERK5
ERK5 [5]
  ERK5 degradation (Western blot): induced the degradation of ERK5
BRD4
  BRD4 degradation (Western blot): induced the degradation of ERK5 and BRD4

## CCC(C)N1c2ccccc2C(=O)N(C)c2cnc(Cc3ccc(C(=O)N4CCN(CCCCCC(=O)N[C@H](C(=O)N5C[C@H](O)C[C@H]5C(=O)N[C@@H](C)c5ccc(-c6scnc6C)cc5)C(C)(C)C)CC4)cc3)nc21 (stereo partly drawn) [compound 23, (2S,4R)-1-((2S)-2-(6-(4-(4-((11-(sec-butyl)-5-methyl-6-oxo-6,11-dihydro-5H-benzo[e]pyrimido[5,4-b][1,4]diazepin-2-yl)methyl)benzoyl)piperazin-1-yl)hexanamido)-3,3-dimethylbutanoyl)-4-hydroxy-N-((S)-1-(4-(4-methylthiazol-5-yl)phenyl)ethyl)pyrrolidine-2-carboxamide]
ERK5 [5]
  ERK5 degradation (Western blot): induced the degradation of ERK5
